Laboratory results as given in ChEMBL document CHEMBL1149608, “Pyrrolidinones as orally bioavailable antagonists of the human melanocortin-4 receptor with anti-cachectic activity” (Bioorg Med Chem, 2007).
The source made the active and inactive calls. The calls are words filed in the database; no cut-off is given here.

How the values were obtained:
[1] = target: T1, Melanocortin receptor 4 (Homo sapiens, UniProt P32245); assay: Antagonist activity at human MC4 receptor in HEK293 cells assessed as inhibition of alpha-MSH stimulated cAMP production
T1 sequence (P32245 whole entry): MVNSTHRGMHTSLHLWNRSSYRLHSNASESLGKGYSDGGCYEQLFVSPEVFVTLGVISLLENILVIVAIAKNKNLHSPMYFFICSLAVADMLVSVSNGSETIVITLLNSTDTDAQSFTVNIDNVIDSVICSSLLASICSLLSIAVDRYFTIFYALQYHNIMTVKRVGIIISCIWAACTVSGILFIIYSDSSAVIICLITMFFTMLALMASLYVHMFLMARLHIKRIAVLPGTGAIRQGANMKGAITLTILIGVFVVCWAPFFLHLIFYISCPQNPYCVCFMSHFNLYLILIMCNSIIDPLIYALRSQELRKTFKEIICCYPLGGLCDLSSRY

[2] = target: T1, Melanocortin receptor 4; assay: Displacement of [125I]NDP-MSH from MC4R receptor in HEK293 cells; type: cell-based
[3] = target: Melanocortin receptor 3 (Homo sapiens, UniProt P41968); assay: Displacement of [125I]NDP-MSH from MC3R receptor in HEK293 cells; type: cell-based
Melanocortin receptor 3, sequence (P41968 whole entry): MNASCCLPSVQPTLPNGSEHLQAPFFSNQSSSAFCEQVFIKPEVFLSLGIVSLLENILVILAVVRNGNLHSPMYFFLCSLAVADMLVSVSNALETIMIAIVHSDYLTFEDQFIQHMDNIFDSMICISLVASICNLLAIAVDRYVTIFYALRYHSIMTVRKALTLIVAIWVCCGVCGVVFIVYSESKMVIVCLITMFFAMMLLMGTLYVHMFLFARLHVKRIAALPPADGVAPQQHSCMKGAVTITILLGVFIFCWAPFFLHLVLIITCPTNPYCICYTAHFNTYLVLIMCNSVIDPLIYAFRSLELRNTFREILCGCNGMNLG

[4] = target: Melanocortin receptor 5 (Homo sapiens, UniProt P33032); assay: Displacement of [125I]NDP-MSH from MC5R receptor in HEK293 cells; type: cell-based
Melanocortin receptor 5, sequence (P33032 whole entry): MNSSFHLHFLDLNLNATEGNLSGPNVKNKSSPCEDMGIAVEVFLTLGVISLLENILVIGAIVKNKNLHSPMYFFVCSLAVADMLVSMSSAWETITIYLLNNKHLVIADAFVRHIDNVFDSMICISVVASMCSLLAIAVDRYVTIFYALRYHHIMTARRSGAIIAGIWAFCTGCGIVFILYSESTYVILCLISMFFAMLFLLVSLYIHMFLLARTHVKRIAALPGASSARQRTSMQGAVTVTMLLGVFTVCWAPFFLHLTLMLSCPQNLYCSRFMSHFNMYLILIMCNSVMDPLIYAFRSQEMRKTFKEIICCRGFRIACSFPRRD

[5] = target: Melanocyte-stimulating hormone receptor (Homo sapiens) (UniProt Q01726); assay: Displacement of [125I]NDP-MSH from MC1R receptor in HEK293 cells; type: cell-based
Melanocyte-stimulating hormone receptor (Homo sapiens), sequence (Q01726 whole entry, looked up): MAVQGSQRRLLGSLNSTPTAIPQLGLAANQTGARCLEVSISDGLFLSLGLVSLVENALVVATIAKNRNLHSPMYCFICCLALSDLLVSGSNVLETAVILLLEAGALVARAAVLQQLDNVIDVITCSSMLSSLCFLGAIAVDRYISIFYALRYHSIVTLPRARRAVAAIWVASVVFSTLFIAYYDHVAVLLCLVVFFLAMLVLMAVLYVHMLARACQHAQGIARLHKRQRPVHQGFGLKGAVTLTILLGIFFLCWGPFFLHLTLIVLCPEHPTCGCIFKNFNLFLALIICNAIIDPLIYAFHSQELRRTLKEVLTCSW

[6] = system: Mus musculus; assay: Increase in lean body mass in LLC-tumor bearing C57BL/6J mouse at 3 mg/kg, ip; type: functional; conditions: route intraperitoneal
[7] = in vivo; conditions: C57BL/6J, mouse, brain, iv, 5 mg/kg
[8] = system: Mus musculus; assay: Increase in body weight in LLC-tumor bearing C57BL/6J mouse at 9 mg/kg, ip; type: functional, organism-based; design: dose 9 mg/kg
[9] = in vivo; conditions: C57BL/6J, mouse, po, 10 mg/kg
[10] = system: Mus musculus; assay: Increase in fat mass in LLC-tumor bearing C57BL/6J mouse at 3 mg/kg, ip; type: functional; conditions: route intraperitoneal
[11] = in vivo; conditions: C57BL/6J, mouse, plasma, iv, 5 mg/kg
[12] = in vivo; conditions: C57BL/6J, mouse, iv, 5 mg/kg
[13] = system: Mus musculus; assay: Increase in food intake in LLC-tumor bearing C57BL/6J mouse at 3 mg/kg, ip relative to control; type: functional, organism-based; design: dose 3 mg/kg
[14] = in vivo; conditions: C57BL/6J, mouse, brain, iv, 5 mg/kg; remark: listed apart in the source
[15] = in vivo; conditions: C57BL/6J, mouse, iv, 5 mg/kg; remark: listed apart in the source
[16] = physchem; conditions: octanol/water
[17] = in vivo; conditions: C57BL/6J, mouse, po, 10 mg/kg; remark: listed apart in the source
[18] = in vivo; conditions: C57BL/6J, mouse, brain, iv, 5 mg/kg; remark: listed apart in the source
[19] = system: Mus musculus; assay: Increase in fat mass in LLC-tumor bearing C57BL/6J mouse at 9 mg/kg, ip; type: functional; conditions: route intraperitoneal
[20] = target: Melanocortin receptor 4 (Rattus norvegicus, UniProt P70596); assay: Binding affinity to rat MC4 receptor
Melanocortin receptor 4 (Rattus norvegicus, UniProt P70596), sequence (P70596 whole entry): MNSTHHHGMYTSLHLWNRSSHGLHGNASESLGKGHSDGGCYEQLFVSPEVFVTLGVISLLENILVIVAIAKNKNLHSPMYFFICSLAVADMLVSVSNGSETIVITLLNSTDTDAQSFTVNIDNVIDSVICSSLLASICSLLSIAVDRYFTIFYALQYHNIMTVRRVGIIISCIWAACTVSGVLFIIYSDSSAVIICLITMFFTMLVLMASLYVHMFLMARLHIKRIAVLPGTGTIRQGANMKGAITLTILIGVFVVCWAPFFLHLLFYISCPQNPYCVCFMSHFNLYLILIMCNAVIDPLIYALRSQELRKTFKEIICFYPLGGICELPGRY

[21] = in vivo; conditions: C57BL/6J, mouse, plasma, po, 10 mg/kg
[22] = system: Mus musculus; assay: Increase in food intake in LLC-tumor bearing C57BL/6J mouse at 9 mg/kg, ip relative to control; type: functional, organism-based; design: dose 9 mg/kg
[23] = in vivo; conditions: C57BL/6J, mouse, brain, iv, 5 mg/kg; remark: listed apart in the source
[24] = system: Mus musculus; assay: Increase in body weight in LLC-tumor bearing C57BL/6J mouse at 3 mg/kg, ip; type: functional, organism-based; design: dose 3 mg/kg
[25] = target: Growth hormone secretagogue receptor type 1 (Homo sapiens, UniProt Q92847); assay: Agonist activity at ghrelin receptor; type: functional
Growth hormone secretagogue receptor type 1, sequence (Q92847 whole entry): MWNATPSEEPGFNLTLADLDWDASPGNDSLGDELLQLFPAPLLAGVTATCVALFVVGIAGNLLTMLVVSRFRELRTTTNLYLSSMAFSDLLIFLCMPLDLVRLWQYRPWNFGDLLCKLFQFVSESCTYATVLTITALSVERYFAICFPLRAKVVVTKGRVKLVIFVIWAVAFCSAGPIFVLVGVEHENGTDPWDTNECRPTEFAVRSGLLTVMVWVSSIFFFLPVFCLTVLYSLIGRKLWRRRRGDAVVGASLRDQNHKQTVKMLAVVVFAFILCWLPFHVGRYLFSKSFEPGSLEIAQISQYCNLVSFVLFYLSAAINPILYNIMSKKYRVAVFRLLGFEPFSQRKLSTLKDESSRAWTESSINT

[26] = target: Melanocortin receptor 4 (Mus musculus, UniProt P56450); assay: Binding affinity to C57BL/6J mouse MC4 receptor
Melanocortin receptor 4 (Mus musculus, UniProt P56450), sequence (P56450 whole entry): as the sequence (P70596 whole entry) above, with H21Y, S36P, T199S, A239T, P329S, G330S counted along it

[27] = in vivo; conditions: C57BL/6J, mouse, po, 10 mg/kg; remark: listed apart in the source
[28] = system: Mus musculus; assay: Increase in lean body mass in LLC-tumor bearing C57BL/6J mouse at 9 mg/kg, ip; type: functional; conditions: route intraperitoneal
[29] = in vivo; conditions: C57BL/6J, mouse, plasma, iv, 5 mg/kg; remark: listed apart in the source
[30] = AUC (0 to 24 hrs) in brain of C57BL/6J mouse at 5 mg/kg, iv; type: ADME, organism-based; design: time < 24 hr, dose 5 mg/kg, route intravenous

CC(C)C[C@H](N)c1cccc(F)c1N1CCN(C(=O)[C@@H](Cc2ccc(Cl)cc2Cl)NC(=O)CN)CC1
Activity [1]: Dose-dependent effect
Ki [2]: 3.3 nM

CC(C)C[C@H](N)c1cc(C(F)(F)F)ccc1N1CCN(C(=O)[C@@H](Cc2ccc(Cl)cc2Cl)NC(=O)CN)CC1
Activity [1]: Dose-dependent effect
Ki [2]: 1.8 nM

CC(C)C[C@@H](N)c1cccc(F)c1N1CCN(C(=O)[C@@H](Cc2ccc(Cl)cc2Cl)NC(=O)CCN)CC1
Activity [1]: Dose-dependent effect
Ki [2]: 2.3 nM

CC(C)C[C@H](N)c1cc(C(F)(F)F)ccc1N1CCN(C(=O)[C@@H](Cc2ccc(Cl)cc2Cl)NC(=O)CCN)CC1
Activity [1]: Dose-dependent effect
Ki [2]: 1 nM

CC(C)C[C@H](N)c1ccccc1N1CCN(C(=O)[C@@H](Cc2ccc(Cl)cc2)N2CCCC2=O)CC1
Activity [1]: Dose-dependent effect
Ki [2]: 38 nM

CC(C)C[C@@H](N)c1cccc(C(F)(F)F)c1N1CCN(C(=O)[C@@H](Cc2ccc(Cl)cc2Cl)NC(=O)CCN)CC1
Activity [1]: Dose-dependent effect
Ki [2]: 29 nM

CC(C)C[C@@H](N)c1cccc(F)c1N1CCN(C(=O)[C@@H](Cc2ccc(Cl)cc2Cl)NC(=O)CN)CC1
Activity [1]: Dose-dependent effect
Ki [2]: 7.1 nM

CC(=O)N[C@H](Cc1ccc(Cl)cc1Cl)C(=O)N1CCN(c2c(F)cccc2[C@@H](N)CC(C)C)CC1
Activity [1]: Dose-dependent effect
Ki [2]: 7.5 nM

CC(C)C[C@H](N)c1cccc(F)c1N1CCN(C(=O)[C@@H](Cc2ccc(Cl)cc2Cl)NC(=O)CCN)CC1
Activity [1]: Dose-dependent effect
Ki [2]: 0.8 nM
Ki [3]: 450 nM
Ki [4]: 240 nM

CC(=O)N[C@H](Cc1ccc(Cl)cc1Cl)C(=O)N1CCN(c2ccc(C(F)(F)F)cc2[C@@H](N)CC(C)C)CC1
Activity [1]: Dose-dependent effect
Ki [2]: 1.8 nM

CC(=O)N[C@H](Cc1ccc(Cl)cc1Cl)C(=O)N1CCN(c2ccc(F)cc2[C@H](N)CC(C)C)CC1
Activity [1]: Dose-dependent effect
Ki [2]: 26 nM

CC(C)C[C@H](N)c1cc(C(F)(F)F)ccc1N1CCN(C(=O)[C@@H](Cc2ccc(Cl)cc2Cl)N2CCCC2=O)CC1
Activity [5]: 21%

CC(C)C[C@@H](N)c1cc(C(F)(F)F)ccc1N1CCN(C(=O)[C@@H](Cc2ccc(Cl)cc2Cl)NC(=O)CCN)CC1
Activity [1]: Dose-dependent effect
Ki [2]: 10 nM

CC(C)C[C@H](N)c1cccc(C(F)(F)F)c1N1CCN(C(=O)[C@@H](Cc2ccc(Cl)cc2Cl)NC(=O)CN)CC1
Activity [1]: Dose-dependent effect
Ki [2]: 3.3 nM

CC(=O)N[C@H](Cc1ccc(Cl)cc1Cl)C(=O)N1CCN(c2c([C@H](N)CC(C)C)cccc2C(F)(F)F)CC1
Activity [1]: Dose-dependent effect
Ki [2]: 47 nM

CC(C)C[C@H](N)c1cc(C(F)(F)F)ccc1N1CCN(C(=O)[C@H](N)Cc2ccc(Cl)cc2Cl)CC1
Activity [1]: Dose-dependent effect
Ki [2]: 39 nM

CC(C)C[C@H](N)c1cc(C(F)(F)F)ccc1N1CCN(C(=O)[C@H](Cc2ccc(Cl)cc2)N2CCCC2=O)CC1
Activity [1]: Dose-dependent effect
Ki [2]: 8.8 nM

CC(C)C[C@H](N)c1cccc(F)c1N1CCN(C(=O)[C@@H](Cc2ccc(Cl)cc2Cl)N2CCCC2=O)CC1
Activity [1]: Dose-dependent effect

CC(C)C[C@H](N)c1cc(C(F)(F)F)ccc1N1CCN(C(=O)[C@@H](Cc2ccc(Cl)cc2)N2CCCC2=O)CC1
IC50 [1]: 510 nM
Activity [6]: 20%
concentration at 1 h [7]: 484 ng/g
Activity [8]: Active
Activity [5]: 31%
bioavailability [9]: 42.4%
Activity [10]: 10%
clearance [11]: 31 mL/min/kg
half-life [12]: 2.2 h
Activity [13]: Active
Kp at 1 h [14]: 1.27
Vd [15]: 5.8 L/kg
logD [16]: 3.1
Cmax [17]: 270 ng/mL
Ki [2]: 11 nM
Kp at 4 h [18]: 0.81
Activity [19]: 10%
Ki [3]: 1800 nM
Ki [20]: 9.1 nM
AUC [21]: 2270 ng·h/mL
Activity [22]: Active
concentration at 4 h [23]: 154 ng/g
Activity [24]: Active
Ki [4]: 990 nM
EC50 [25]: 4100 nM
Intrinsic activity [25]: 47%
Ki [26]: 5.5 nM
Tmax [27]: 0.5 h
Activity [28]: 20%
AUC [29]: 2680 ng·h/mL

CC(C)C[C@@H](N)c1cccc(C(F)(F)F)c1N1CCN(C(=O)[C@@H](Cc2ccc(Cl)cc2Cl)NC(=O)CN)CC1
Activity [1]: Dose-dependent effect
Ki [2]: 49 nM

CC(C)C[C@H](N)c1cccc(C(F)(F)F)c1N1CCN(C(=O)[C@@H](Cc2ccc(Cl)cc2Cl)NC(=O)CCN)CC1
Activity [1]: Dose-dependent effect
Ki [2]: 2.5 nM

CC(=O)N[C@H](Cc1ccc(Cl)cc1Cl)C(=O)N1CCN(c2c(F)cccc2[C@H](N)CC(C)C)CC1
Activity [1]: Dose-dependent effect
Ki [2]: 6 nM

CC(C)C[C@H](N)c1cc(C(F)(F)F)ccc1N1CCN(C(=O)[C@@H](Cc2ccc(Cl)cc2Cl)N2CCNCC2=O)CC1
IC50 [1]: 210 nM
concentration at 1 h [7]: 41 ng/g
Activity [5]: 23%
bioavailability [9]: 19.4%
AUC(0-t) at 24 h [30]: 1260 ng/g.hr
clearance [11]: 20 mL/min/kg
half-life [12]: 7.7 h
Kp at 1 h [14]: 0.07
Vd [15]: 13 L/kg
logD [16]: 2.8
Cmax [17]: 214 ng/mL
Ki [2]: 4.5 nM
Kp at 4 h [18]: 0.24
Ki [3]: 950 nM
AUC [21]: 1530 ng·h/mL
concentration at 4 h [23]: 46 ng/g
Ki [4]: 360 nM
Tmax [27]: 0.5 h
AUC [29]: 3940 ng·h/mL

CC(C)C[C@H](N)c1cc(C(F)(F)F)ccc1N1CCN(C(=O)[C@@H](Cc2ccc(Cl)cc2Cl)NC(=O)C2CCNCC2)CC1
Activity [1]: Dose-dependent effect
Ki [2]: 0.8 nM
